# Active and inactive are the calls of the source.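 How the source made its calls: active means normalized viability below 40% relative to DMSO and staurosporine controls, called cytotoxic; inactive means the rest.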
# Tested on: ConA-stimulated mouse T cells viability, FDA flow cytometry, 24 h
# Assay: viability of concanavalin A-activated mouse T cells – cell-based, concanavalin A stimulation, cytotoxicity control for T cell immune modulator project (AID 504864)
# Details: at 20 µM; active compounds read low
row,SMILES,viability
1,O=C(O)C1CCC(Cn2c(SCc3cc(=O)n4cc(Cl)ccc4n3)nc3ccsc3c2=O)CC1 (stereo not drawn),71.6% (inactive)
2,Cc1cc(C)n(C(=O)c2sc3cc(F)ccc3c2Cl)n1,87.8% (inactive)
3,O=C(COC(=O)C12CC3CC(CC(Br)(C3)C1)C2)Nc1cccc(S(=O)(=O)N2CCOCC2)c1,96.9% (inactive)
4,O=C(NCCN1CCN(c2ccccc2)CC1)c1cccc(Br)c1,86.2% (inactive)
5,CCOC(=O)c1c(N2C(=O)CC(Sc3ccccc3C(=O)O)C2=O)sc2c1CCCC2 (stereo not drawn),94.2% (inactive)
6,CCC1(C)NC(=O)N(CC(=O)N2N=C(c3ccccc3)CC2c2ccc(OC)cc2)C1=O (stereo not drawn),93.6% (inactive)
7,CCN(CC)C(=O)N1CCN(S(=O)(=O)c2ccc(C)cc2)CC1,105% (inactive)
8,Cc1ccc(N2CC(C(=O)NC3=NCCS3)CC2=O)cc1 (stereo not drawn),93.6% (inactive)
9,O=C(NCC1CCCCC1)c1ccc(Cl)c(S(=O)(=O)N2CCOCC2)c1,78.3% (inactive)
10,COc1ccc(S(=O)(=O)N2CCCCC2)cc1NC(=O)c1cnc(C)cn1,102% (inactive)
11,Cc1ccc(OCCOC(=O)c2cc(S(=O)(=O)N3CCCCC3)ccc2N2CCOCC2)cc1,48.6% (inactive)
12,Cc1cc(=O)oc2c3c(cc(OCC(=O)NCc4ccncc4)c12)OC(C)(C)CC3,106% (inactive)
13,COCc1c(C(=O)Nc2cccc(S(=O)(=O)N3CCCCC3)c2)oc2ccccc12,58.7% (inactive)
14,Cc1ccccc1C(=O)N1CCC(C(=O)Nc2ccc(C)c(S(=O)(=O)N3CCCCC3)c2)CC1,82.2% (inactive)
15,CCOc1ccc(-c2nc(N)ncc2-c2ccccc2)c(O)c1,83.1% (inactive)
16,c1ccc(COc2ccc(OCCN3CCCCC3)cc2)cc1,112% (inactive)
17,Cc1ccc(C(=O)NCCCN2CCOCC2)c(C)c1,96.3% (inactive)
18,Cc1ccc(O)c(CCc2ccccc2)n1,96.7% (inactive)
19,COc1ccccc1NS(=O)(=O)c1cc(NC(=O)CNC(=O)c2cc(C)cc(C)c2)ccc1C,111% (inactive)
20,COc1ccc([N+](=O)[O-])cc1NC(=O)c1ccc(N(Cc2ccccc2C)S(C)(=O)=O)cc1,90.9% (inactive)
21,CCCc1nnc(NC(=O)c2ccc(S(=O)(=O)N(C)c3ccccc3OC)cc2)s1,89.7% (inactive)
22,O=C(NNS(=O)(=O)c1ccc2ccccc2c1)c1cccs1,100% (inactive)
23,O=C(Cn1cc(C(F)(F)F)cc(Cl)c1=O)NCCc1ccc(Cl)cc1Cl,102% (inactive)
24,CC(=O)c1ccc(-c2csc(N3CCC(C(N)=O)CC3)n2)cc1,91.6% (inactive)
25,COCCCN1CCc2[nH]c(=S)[nH]c(=O)c2C1,95.4% (inactive)
26,O=C(NCCC1=CCCCC1)C(=O)NCC(c1ccco1)N1CCN(c2ccccc2F)CC1 (stereo not drawn),73.6% (inactive)

row,SMILES,viability
1,CCOC(=O)c1c(C=O)c2ccccc2n1CC,91.6% (inactive)
2,Cc1ccc(S(=O)(=O)N2CCN(S(=O)(=O)N(C)C)CC2)c(C)c1,84.8% (inactive)
3,COC(=O)c1ccccc1NC(=O)C1CCN(C(=O)c2cc(OC)cc(OC)c2)CC1,103% (inactive)
4,CCOC(=O)C1CCCN(S(=O)(=O)c2ccc(F)c(C(=O)Nc3ccc(F)c(F)c3)c2)C1 (stereo not drawn),74.5% (inactive)
5,CCCCOc1ccc(C(=O)NCC(=O)N2CCN(C(=O)c3ccco3)CC2)cc1,85.5% (inactive)
6,CN(C)S(=O)(=O)c1cccc(-n2sc3ccccc3c2=O)c1,12.1%
7,Cc1ccc(Cn2c([N+](=O)[O-])cnc2C)cc1,110% (inactive)
8,O=C(NCc1cccnc1)C(=O)NCC(c1ccco1)N1CCN(c2ccccc2)CC1 (stereo not drawn),101% (inactive)
9,CCOC(=O)c1ccc(NC(=O)CN2C(=O)NC3(CCCCCCC3)C2=O)cc1,91.1% (inactive)
10,COc1ccccc1CNC(=O)COc1ccc(C)cc1,98.7% (inactive)
11,Cc1cccc(NC(=O)C2CCN(S(=O)(=O)c3c(C)[nH]c(=O)[nH]c3=O)CC2)c1,96% (inactive)
12,Cc1ccc(S(=O)(=O)N2CCN(C(=O)CNC(=O)c3ccc(Cl)cc3)CC2)cc1,33.2%
13,CC1CCCCC1NC(=O)COC(=O)c1ccc2ncsc2c1 (stereo not drawn),90.9% (inactive)
14,CCC(C(=O)Nc1ccccc1)c1ccccc1 (stereo not drawn),104% (inactive)
15,Cc1ccccc1C(=O)NCC(=O)N1CCN(C/C=C/c2ccccc2)CC1,100% (inactive)
16,CN(CC(=O)Nc1cc(S(=O)(=O)N2CCCC2)ccc1Cl)Cc1ccc2c(c1)OCO2,78.3% (inactive)
17,COc1cccc(NC(=O)Nc2ccc3nc(C)c(C)nc3c2)c1,100% (inactive)
18,COc1ccc(CNC(=O)c2cccnc2SC)cc1OC,75.5% (inactive)
19,COc1ccc(S(=O)(=O)N2CCCC2C(=O)Nc2ccc(C(C)=O)cc2)cc1 (stereo not drawn),94.9% (inactive)
20,CCOC(=O)N1CCN(C(=O)c2ccc(CS(=O)Cc3ccc(C)cc3)o2)CC1 (stereo not drawn),98.2% (inactive)
21,CCN(CC)S(=O)(=O)c1ccc(Cl)c(NC(=O)COC(=O)C2CCCCC2)c1,106% (inactive)
22,COc1ccc(Nc2ccccc2N)cc1,21.9%
23,Cc1sc2ncnc(NCC(C)(C)N3CCOCC3)c2c1C,101% (inactive)
24,COc1ccc(NC(=O)CSCC(=O)Nc2cccc(S(=O)(=O)N3CCCCCC3)c2)cc1,86.6% (inactive)
25,O=C(CCC(=O)N1CCOCC1)NCc1cccc(C(F)(F)F)c1,98% (inactive)
26,O=C(CC1=NCCNC(c2ccccc2)C1)c1ccccc1O (stereo not drawn),75% (inactive)

row,SMILES,viability
1,CCCNC(=O)c1nc2ncc(Br)cn2n1,101% (inactive)
2,CCOCC(=O)Nc1ccc(S(=O)(=O)N2CCC(c3nc4ccccc4[nH]3)CC2)cc1,94% (inactive)
3,CC(Sc1nc2ccccc2[nH]1)C(=O)NC1CCCCC1C (stereo not drawn),101% (inactive)
4,CCCCn1nc(C(=O)N2CCN(S(=O)(=O)c3ccccc3)CC2)c2ccccc2c1=O,98.2% (inactive)
5,CC(=O)Nc1ccc(S(=O)(=O)NC2CCSc3ccccc32)cc1 (stereo not drawn),98.5% (inactive)
6,O=C1CC(c2nc3ccccc3[nH]2)CN1Cc1ccccc1 (stereo not drawn),110% (inactive)
7,CC(C)(C)NC(=O)COc1ccc(CNCc2cccnc2)cc1,91.1% (inactive)
8,CN1CCN(S(=O)(=O)c2cccc(C(=O)Nc3cc(C(F)(F)F)ccc3N3CCCCC3)c2)CC1,56.9% (inactive)
9,COc1ccc(C(O)c2coc3ccc(O)c(CN(C)C)c23)cc1 (stereo not drawn),88% (inactive)
10,CCOc1ccc(CCNC(=O)CCS(=O)(=O)c2ccc(C)cc2)cc1OCC,85.5% (inactive)
11,Cc1cc(Cl)c(OCCCSc2nc(C)cc(=O)[nH]2)c(Br)c1,103% (inactive)
12,Cc1ccc(NC(=O)COC(=O)CCc2c[nH]c3ccccc23)c(C)c1,97.2% (inactive)
13,Cc1ncc([N+](=O)[O-])n1Cc1cccc(F)c1,116% (inactive)
14,CN1CCN(S(=O)(=O)c2ccc(C(=O)Nc3ccccc3)cc2)CC1,93.5% (inactive)
15,O=C(c1ccc(N2C(=O)C3CC=C(Cl)CC3C2=O)cc1)N1CCCCC1 (stereo not drawn),6.85%
16,O=C(CS(=O)(=O)Cc1ccccc1)N1CCc2ccccc21,106% (inactive)
17,COc1ccc(/C=C2\SC(=S)N(CCC(=O)N3CCOCC3)C2=O)cc1,78.4% (inactive)
18,CCOC(=O)c1ccc(S(=O)(=O)N2CCN(C3CCCC3)CC2)cc1,90.7% (inactive)
19,COc1ccc(NC(=O)CC2C(=O)N(Cc3ccccc3)C(=S)N2CCN2CCOCC2)cc1 (stereo not drawn),100% (inactive)
20,O=C(OCCOc1cccc(Cl)c1)c1ccc(F)c(S(=O)(=O)N2CCOCC2)c1,85% (inactive)
21,CN(C)S(=O)(=O)c1ccc(C(=O)NCCc2ccco2)cc1,91.8% (inactive)
22,COc1ccc(C2=Nc3cc(C)ccc3OC2)cc1,94.5% (inactive)
23,COc1ccc(N2CC(C(=O)NC(C)C(=O)NCc3ccccc3OC)CC2=O)cc1 (stereo not drawn),88.2% (inactive)
24,NC(=O)C1CCN(c2nc(-c3cc4ccccc4o3)cs2)CC1,88.8% (inactive)
25,CCN(CC)CCNC(=O)CCCNC(=O)Cn1cnc2sc(C)c(C)c2c1=O,98.7% (inactive)
26,Cn1c(CNC(=O)CNC(=O)c2ccc(F)cc2)cc(=O)n(C)c1=O,96.3% (inactive)
